# Test results reported in patent US11292821B2, “Peptides and combination of peptides for use in immunotherapy against lung cancer, including NSCLC, SCLC and other cancers” (Immatics Biotechnologies GmbH, priority 2017, dated 2022).
# System: HLA-A*24
# Assay: MHC binding assay (UV-ligand exchange, β2m ELISA)
# Design: species or system human
row,"Peptide exchange (peptide exchange yield, MHC class I binding score)",Substance
1,“++++” (>75% = ++++),22 (TQPGDWTLF; listed as Homo sapiens) [compound 22]
2,“++++” (>75% = ++++),23 (KFIISDWRF; listed as Homo sapiens) [compound 23]
3,“++++” (>75% = ++++),24 (MYPDLSELLM; listed as Homo sapiens) [compound 24]
4,“++++” (>75% = ++++),25 (SYNGYVFYL; listed as Homo sapiens) [compound 25]
5,“++++” (>75% = ++++),26 (KTPTNYYLF; listed as Homo sapiens) [compound 26]
6,“++++” (>75% = ++++),27 (NYTLYPITF; listed as Homo sapiens) [compound 27]
7,“++++” (>75% = ++++),28 (YYSIISHTL; listed as Homo sapiens) [compound 28]
8,“++++” (>75% = ++++),29 (VYPLLSRLYW; listed as Homo sapiens) [compound 29]
9,“++++” (>75% = ++++),30 (QYLPGWTVLF; listed as Homo sapiens) [compound 30]
10,“++++” (>75% = ++++),31 (QYQNVLTLW; listed as Homo sapiens) [compound 31]
11,“++++” (>75% = ++++),32 (SLPDLTPTF; listed as Homo sapiens) [compound 32]
12,“+++” (>50 = +++),33 (KSSVIASLLF; listed as Homo sapiens) [compound 33]
13,“++++” (>75% = ++++),34 (MQPRMFFLF; listed as Homo sapiens) [compound 34]
14,“++++” (>75% = ++++),35 (KYLEESVWL; listed as Homo sapiens) [compound 35]
15,“++” (>20% = ++),36 (KQMEDGHTLF; listed as Homo sapiens) [compound 36]
16,“++++” (>75% = ++++),37 (QWPWQASLQF; listed as Homo sapiens) [compound 37]
17,“++++” (>75% = ++++),38 (KYTNWKAFL; listed as Homo sapiens) [compound 38]
18,“+” (>10% = +),39 (LIFMLANVF; listed as Homo sapiens) [compound 39]
19,“+++” (>50 = +++),40 (QYEPPSAPSTTF; listed as Homo sapiens) [compound 40]
20,“++++” (>75% = ++++),42 (TLPNTIYRF; listed as Homo sapiens) [compound 42]
21,“+” (>10% = +),43 (IQMDEPMAF; listed as Homo sapiens) [compound 43]
22,“++++” (>75% = ++++),44 (AYLSAVGTF; listed as Homo sapiens) [compound 44]
23,“++++” (>75% = ++++),45 (KYFVPPQLF; listed as Homo sapiens) [compound 45]
24,“++++” (>75% = ++++),46 (AFPVTSIFHTF; listed as Homo sapiens) [compound 46]
25,“++++” (>75% = ++++),47 (KYADYFLEV; listed as Homo sapiens) [compound 47]

row,"Peptide exchange (peptide exchange yield, MHC class I binding score)",Substance
1,“++++” (>75% = ++++),48 (VFIDHPVHLKF; listed as Homo sapiens) [compound 48]
2,“++++” (>75% = ++++),49 (LYISEVRNI; listed as Homo sapiens) [compound 49]
3,“++++” (>75% = ++++),50 (SYPELVKMVW; listed as Homo sapiens) [compound 50]
4,“++++” (>75% = ++++),51 (KYALLLQEL; listed as Homo sapiens) [compound 51]
5,“++++” (>75% = ++++),52 (KYMKIFHKF; listed as Homo sapiens) [compound 52]
6,“++++” (>75% = ++++),53 (KYITNLEDL; listed as Homo sapiens) [compound 53]
7,“+++” (>50 = +++),54 (LLIKLLQTF; listed as Homo sapiens) [compound 54]
8,“++++” (>75% = ++++),55 (RWMDQRLVF; listed as Homo sapiens) [compound 55]
9,“++++” (>75% = ++++),56 (VYMIEPLEL; listed as Homo sapiens) [compound 56]
10,“++++” (>75% = ++++),57 (YPSIIQEF; listed as Homo sapiens) [compound 57]
11,“++++” (>75% = ++++),58 (QFAAPLRGIYF; listed as Homo sapiens) [compound 58]
12,“++++” (>75% = ++++),63 (VMPSDSFFF; listed as Homo sapiens) [compound 63]
13,“++++” (>75% = ++++),64 (NYAIFDEGHML; listed as Homo sapiens) [compound 64]
14,“++++” (>75% = ++++),67 (RYPGKFYRV; listed as Homo sapiens) [compound 67]
15,“++++” (>75% = ++++),68 (IYQQIIQTY; listed as Homo sapiens) [compound 68]
16,“++++” (>75% = ++++),69 (IMPEKFEFW; listed as Homo sapiens) [compound 69]
17,“++++” (>75% = ++++),70 (PYTNYTFDF; listed as Homo sapiens) [compound 70]
18,“++++” (>75% = ++++),71 (SYMVLAPVF; listed as Homo sapiens) [compound 71]
19,“+++” (>50 = +++),73 (SYIGLPLTL; listed as Homo sapiens) [compound 73]
20,“++++” (>75% = ++++),74 (VYDQYFITL; listed as Homo sapiens) [compound 74]
21,“++++” (>75% = ++++),75 (NYIYSISVF; listed as Homo sapiens) [compound 75]
22,“+” (>10% = +),77 (AYTLLGHEFV; listed as Homo sapiens) [compound 77]
23,“++++” (>75% = ++++),78 (TWFPKTPMLF; listed as Homo sapiens) [compound 78]
24,“++++” (>75% = ++++),80 (YYSPLRDLL; listed as Homo sapiens) [compound 80]
25,“++++” (>75% = ++++),81 (LYPEGLRLL; listed as Homo sapiens) [compound 81]
